# Results as given in patent US8592382B2, “Formulations for the oral administration of therapeutic agents and related methods” (The University of British Columbia, priority 2007, dated 2013).
# Read-outs that look alike come from different tables or passages of the source.
# Assays:
# [1] = Solubility of the drug substance in water, solvents or simulated GI media; assay type: physicochemical
# Leishmania = details: visceral leishmaniasis, IV therapy; cited from earlier work
# [2] = cited from earlier work
# [3] = oral; cited from earlier work
smiles,measurement,setting,value
"C[C@@H]1[C@H](O)[C@@H](C)/C=C/C=C/C=C/C=C/C=C/C=C/C=C/[C@H](O[C@@H]2O[C@H](C)[C@@H](O)[C@H](N)[C@@H]2O)C[C@@H]2O[C@](O)(C[C@@H](O)C[C@@H](O)[C@H](O)CC[C@@H](O)C[C@@H](O)CC(=O)O[C@H]1C)C[C@H](O)[C@H]2C(=O)O (relative stereo) [amphotericin B, [1R-(1R*,3S*,5R*,6R*,9R*,11R*,15S*,16R*,17R*,18S*,19E,21E,23E,25E,27E,29E,31E,33R*,35S*,36R*,37S,)]-33-[(3-amino-3,6-dideoxy-β-D-mannopyranosyl)oxy]1,3,5,6,9,11,17,37-octahydroxy-15,16,18-trimethyl-13-oxo-14,39-dioxabicyclo-[33.3.1]nonatriaconta-19,21,23,25,27,29,31-heptaene-36-carboxylic acid]",AmpB solubility in aqueous solution,[1]; aqueous solution (pH 7),negligible
same,Solubility of AmpB neat powder in simulated GI media,[1]; simulated gastric and intestinal fluids,not soluble
same,Cure rate,Leishmania,97%
same,Solubility of crystalline substance in water,[2]; water,insoluble
same,Bioavailability,[3],negligible
Clc1ccc(COC(Cn2ccnc2)c2ccc(Cl)cc2Cl)cc1 (centres unmarked) [econazole],Solubility in ethanol,[2]; ethanol,≤ 20000 µg/mL
same,Solubility in water,"[2]; water, 19-66° F.",< 1000 µg/mL
CC(=O)O[C@@]12CO[C@@H]1C[C@H](O)[C@@]1(C)C(=O)[C@H](O)C3=C(C)[C@@H](OC(=O)[C@H](O)[C@@H](NC(=O)OC(C)(C)C)c4ccccc4)C[C@@](O)([C@@H](OC(=O)c4ccccc4)[C@H]21)C3(C)C [docetaxel],Solubility in water,[2]; water,10 to 25 µg/mL
